Source: US8187822B2, “Methods to identify modulators” (Givaudan S.A., priority 2007, dated 2012)
Entries after “also recorded” stand apart in the source; their conditions may differ. Where two headings read alike, the source gives them in different places.

Legend:
TAS2R44 = target: T1, TAS2R44 (Homo sapiens, UniProt P59538, L162M); test: Fluo-4 calcium assay, HEK293T cells expressing Gα16-gustducin44 and TAS2R44; assay type: cell-based; details: for Sucralose + test cpd A ΔF/F0: 25 μM test cpd A; for Sucralose + test cpd A ΔF/F0 / Sucralose ΔF/F0: TAS2R44 expressing cells; for TAS2R44 ΔF/F0: 0.02% DMSO
T1 construct: RSS tag (first 45 amino acids of rat somatostatin receptor subtype 3, plus EcoRI site) (N); expressed in transfected cells
T1 sequence (P59538 with tags, fused parts or gaps L162M): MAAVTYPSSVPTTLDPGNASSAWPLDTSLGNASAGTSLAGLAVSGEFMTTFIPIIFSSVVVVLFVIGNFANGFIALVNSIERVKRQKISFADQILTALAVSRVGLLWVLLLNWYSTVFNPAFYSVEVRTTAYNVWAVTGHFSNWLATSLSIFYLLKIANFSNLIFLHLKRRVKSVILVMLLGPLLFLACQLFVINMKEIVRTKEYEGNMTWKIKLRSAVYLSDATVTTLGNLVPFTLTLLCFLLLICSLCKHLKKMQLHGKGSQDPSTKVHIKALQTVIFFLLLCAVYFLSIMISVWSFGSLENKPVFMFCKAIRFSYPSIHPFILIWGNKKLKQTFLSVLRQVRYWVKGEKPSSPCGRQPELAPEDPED
Procedure: Cell lines that stably expresses a SABR (TAS2R44, TAS2R1, TAS2R10) was generated by transfecting pcDNA3.1Zeo-SABR into HEK293T/Gα16-gustducin 44 cells (both formed as described in example 1). The host cell line HEK-293T is commercially available from the American Tissue Culture Collection (ATCC), ATCC®# CRL-11268.
The expression of TAS2R44 was evaluated by testing for the presence of a functional response to the known TAS2R44 agonist saccharin (as described in WO 2004/029087) in addition to sucralose, which was determined via automated calcium imaging on the FLIPR-TETRA™ (Molecular Devices, Sunnyvale, Calif., US) as described in example 3. One clone was selected resulting in the HEK293T/Gα16-gustducin 44/TAS2R44 cell line.
Fluo-4AM (Invitrogen, Carlsbad, Calif., US) is a fluorescent indicator of intracellular calcium dynamics (change in concentration) and allows monitoring changes in the calcium concentration, particularly an increase in response to receptor activation occurring after agonist exposure.
(§1) At day 0, the HEK293T cell line expressing Gα16-gustducin44 and a TAS2R bitter taste receptor formed as described in examples 2b or 2c was seeded in antibiotic-free growth medium (standard DMEM with 10% (v/v) heat-inactivated fetal bovine serum, 2 mM L-glutamine[…]) into black wall/clear bottom 96-well plates, coated with poly(ethylenimine) (0.005% v/v) at a concentration of 15,000 cells per well and incubated for 48 hours in humidified atmosphere (37° C., 5% CO2).
(§2) At the time of the assay, the growth medium was discarded and the cells were in humidified atmosphere (37° C., 5% CO2) for 1 hour with 50 μl of loading buffer consisting of 1.5 μM Fluo-4 AM and […] probenicid (Sigma-Aldrich, St. Louis, Mo., US) in DMEM.
(§3) Afterwards, the 96-well plate was washed 5 times with 100 μl of assay buffer (130 mM NaCl, 5 mM KCl, 10 mM HEPES, 2 mM CaCl2, and 5 mM dextrose, pH 7.4) per well, using an automated plate washer (BioTek). The plate was further incubated for 30 minutes at room temperature in the dark to allow for complete de-esterification of the Fluo-4. Afterwards the plate was washed 5 times with 100 μl of assay buffer per well, and reconstituted with 100 μl of assay buffer per well.
(§4) For assay reading, the plate was placed in a Fluorometric Imaging Plate Reader (FLIPR) (FLIPR-TETRA™, Molecular Devices, Sunnyvale, Calif., US), and receptor activation was initiated by addition of 100 μl of a twofold concentrated agonist stock solution (to give the desired agonist end concentration when added to the 100 microliter assay buffer volume), which was prepared in assay buffer.
(§5) Fluorescence was continuously monitored for 20 seconds to give a signal baseline (averaged to give F0) prior to agonist addition and for 120 seconds after agonist addition. The change in signal divided by F0 gives ΔF/F0 indicated in the table, with ΔF being the maximum signal occurring within the 120 seconds minus the minimum signal (occurring within the 120 seconds after agonist addition.
All data was collected from at least two independent experiments each carried out in triplicate.
A concentration-response analysis was performed and EC50 values were calculated by nonlinear regression using the function f(x)=(a−d)/(1+(x/C)^nh)+d; with a=minimum signal, d=maximum signal, nh=hill coefficient, C=EC50, and x=agonist concentration. EC50 is the molar concentration of an agonist which produces 50% of the maximum possible effective response for that agonist.
The obtained calcium signals were corrected for the response of cells expressing only the G Protein α subunit (Gα16-gustducin44) and normalized to the fluorescence of cells prior to the stimulus using ΔF/F0 (Fmax−Fmin/F0). […]

[1] = test system: cells expressing only Gα16gustducin44 but no TAS2 receptor; test: Fluo-4 calcium assay, negative control cells without bitter receptor; assay type: cell-based; details: for Neg. Control ΔF/F0: 0.02% DMSO
Procedure: HEK293T/Gα16-gustducin 44 cells were used; they are formed as described in WO 2004/055048. The host cell line HEK-293T is commercially available from the American Tissue Culture Collection (ATCC), ATCC®# CRL-11268
as §1, §2, §3, §4, §5
The obtained calcium signals were corrected for the response of cells expressing only the G Protein α subunit (Gα16-gustducin44) and normalized to the fluorescence of cells prior to the stimulus using ΔF/F0 (Fmax−Fmin/F0).
To confirm that the cell line formed in example 2c stably expresses the bitter taste receptor TAS2R44, a concentration-response curve for saccharin, a known agonist of TAS2R44, was generated. […] The standard deviation (+/−STD) is also indicated.
As a negative control to determine unspecific signals, each of the applied concentrations of sucralose was applied to cells expressing only Gα16gustducin44.
As a negative control, each agonist and each agonist with the antagonist/test compound (test cpd A) is applied to cells expressing only Gal 6gustducin44 but no TAS2 receptor (see results in table 7 herein below).

CC1=CCC(C/C=C/C(=O)O)C1(C)C (stereo not shown) [test cpd A, (E)-4-(2,2,3-trimethylcyclopent-3-enyl)but-2-enoic acid]
Sucralose + test cpd A ΔF/F0 (TAS2R44; sucralose 0.3906 mM): 0.011 | Sucralose + test cpd A ΔF/F0 (TAS2R44; sucralose 0.7813 mM): 0.010 | Sucralose + test cpd A ΔF/F0 (TAS2R44; sucralose 1.5625 mM): 0.016 | Sucralose + test cpd A ΔF/F0 (TAS2R44; sucralose 3.1250 mM): 0.005 | Sucralose + test cpd A ΔF/F0 (TAS2R44; sucralose 6.2500 mM): 0.000 | Sucralose + test cpd A ΔF/F0 (TAS2R44; sucralose 12.5000 mM): −0.015 | Sucralose + test cpd A ΔF/F0 (TAS2R44; sucralose 25.0000 mM): −0.035 | Sucralose + test cpd A ΔF/F0 (TAS2R44; sucralose 50.0000 mM): −0.025 | Sucralose + test cpd A ΔF/F0 (TAS2R44; sucralose 100.0000 mM): 0.107 | effect on the response of TAS2R44 to sucralose, in words (TAS2R44; test compound at 25 μM): inhibited; also recorded: inhibit the response of a SABTR to sucralose | Sucralose + test cpd A ΔF/F0 ([1]; 25 μM test cpd A, sucralose 100.0000 mM, cells without bitter receptor): −0.175

OC[C@H]1O[C@H](O[C@]2(CCl)O[C@H](CCl)[C@@H](O)[C@@H]2O)[C@H](O)[C@@H](O)[C@H]1Cl [Sucralose, sucralose]
EC50 (TAS2R44; agonist alone, stable TAS2R44 cell line (Examples 4, 5), read-out: calculated EC50 value): 16.7 ± 1.01 mM | EC50 (TAS2R44; agonist sucralose alone, TAS2R44 (Example 9), read-out: EC50 Agonist): 36.3 ± 5.7 mM | agonist activity at TAS2R44 (calcium signaling), in words (TAS2R44; cells stably expressing human TAS2R44): significant increase in calcium signaling | TAS2R44 ΔF/F0 (TAS2R44; sucralose 0.3906 mM): 0.023 | TAS2R44 ΔF/F0 (TAS2R44; sucralose 0.7813 mM): 0.025 | TAS2R44 ΔF/F0 (TAS2R44; sucralose 1.5625 mM): 0.026 | TAS2R44 ΔF/F0 (TAS2R44; sucralose 3.1250 mM): 0.043 | TAS2R44 ΔF/F0 (TAS2R44; sucralose 6.2500 mM): 0.059 | TAS2R44 ΔF/F0 (TAS2R44; sucralose 12.5000 mM): 0.109 | TAS2R44 ΔF/F0 (TAS2R44; sucralose 25.0000 mM): 0.197 | TAS2R44 ΔF/F0 (TAS2R44; sucralose 50.0000 mM): 0.256 | TAS2R44 ΔF/F0 (TAS2R44; sucralose 100.0000 mM): 0.260 | Sucralose ΔF/F0 (TAS2R44; sucralose alone 0.3906 mM (0.02% DMSO control of Example 9)): 0.046 | Sucralose ΔF/F0 (TAS2R44; sucralose alone 0.7813 mM (0.02% DMSO control of Example 9)): 0.038 | Sucralose ΔF/F0 (TAS2R44; sucralose alone 1.5625 mM (0.02% DMSO control of Example 9)): 0.042 | Sucralose ΔF/F0 (TAS2R44; sucralose alone 3.1250 mM (0.02% DMSO control of Example 9)): 0.030 | Sucralose ΔF/F0 (TAS2R44; sucralose alone 6.2500 mM (0.02% DMSO control of Example 9)): 0.027 | Sucralose ΔF/F0 (TAS2R44; sucralose alone 12.5000 mM (0.02% DMSO control of Example 9)): 0.051 | Sucralose ΔF/F0 (TAS2R44; sucralose alone 25.0000 mM (0.02% DMSO control of Example 9)): 0.110 | Sucralose ΔF/F0 (TAS2R44; sucralose alone 50.0000 mM (0.02% DMSO control of Example 9)): 0.192 | Sucralose ΔF/F0 (TAS2R44; sucralose alone 100.0000 mM (0.02% DMSO control of Example 9)): 0.352 | signal in negative control, in words ([1]; host cells expressing only Gα16-gustducin44): No significant change | Neg. Control ΔF/F0 ([1]; sucralose 0.3906 mM): 0.014 | Neg. Control ΔF/F0 ([1]; sucralose 0.7813 mM): 0.014 | Neg. Control ΔF/F0 ([1]; sucralose 1.5625 mM): 0.017 | Neg. Control ΔF/F0 ([1]; sucralose 3.1250 mM): 0.012 | Neg. Control ΔF/F0 ([1]; sucralose 6.2500 mM): 0.017 | Neg. Control ΔF/F0 ([1]; sucralose 12.5000 mM): 0.016 | Neg. Control ΔF/F0 ([1]; sucralose 25.0000 mM): 0.016 | Neg. Control ΔF/F0 ([1]; sucralose 50.0000 mM): 0.018 | Neg. Control ΔF/F0 ([1]; sucralose 100.0000 mM): 0.021 | Sucralose ΔF/F0 ([1]; sucralose alone 100.0000 mM, cells without bitter receptor (Example 9)): −0.179
